Measured values reported in PMC11174489, “In Vitro Activation of Human Adrenergic Receptors and Trace Amine-Associated Receptor 1 by Phenethylamine Analogues Present in Food Supplements” (Nutrients, 2024).

What follows are compounds tested against T1, human adrenergic receptor (ADR) α1A (Homo sapiens, UniProt P35348) (assay: ADRα1A activation, Ca2+ influx (Fluo-8) in overexpressing chem-1 cells). Details: % of maximal signal obtained by adrenaline; average (95% CI).
T1 construct: host or cells: rat chem-1 cells
T1 sequence (P35348 1-466): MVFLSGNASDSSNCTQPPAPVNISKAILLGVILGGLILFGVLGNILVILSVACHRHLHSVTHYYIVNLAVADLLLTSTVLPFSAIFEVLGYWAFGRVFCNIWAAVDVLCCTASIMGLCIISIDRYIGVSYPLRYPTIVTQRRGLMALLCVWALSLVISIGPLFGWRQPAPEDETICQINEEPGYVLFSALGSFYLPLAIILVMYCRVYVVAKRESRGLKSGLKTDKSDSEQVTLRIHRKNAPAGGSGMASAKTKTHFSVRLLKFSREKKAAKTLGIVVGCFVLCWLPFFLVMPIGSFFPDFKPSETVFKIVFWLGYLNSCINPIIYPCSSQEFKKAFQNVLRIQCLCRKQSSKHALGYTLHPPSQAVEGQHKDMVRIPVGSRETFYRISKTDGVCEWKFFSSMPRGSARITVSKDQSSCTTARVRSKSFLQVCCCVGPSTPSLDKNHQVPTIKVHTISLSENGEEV
Type: cell-based

| SMILES | ADRα1A Emax |
| --- | --- |
| CC(C)NCC(O)c1ccc(O)cc1 (stereo not drawn) [Isopropyloctopamine, isopropyloctopamine] | - |
| NCCc1ccccc1 [Phenethylamine, phenethylamine] | - |
| NCCc1ccc(O)cc1 [Tyramine, tyramine] | - |
| CC(CN)c1ccccc1 (stereo not drawn) [β-Methylphenethyl-amine, beta-methylphenethylamine] | - |

Same assay, conditions: Ca2+ response, chem-1 cells; average (95% confidence interval), 7–9 experiments

| SMILES | EC50 [µM] |
| --- | --- |
| CNCC(O)c1ccccc1 (stereo not drawn) [Halostachine, halostachine] | 8.7 |
| CC(C)NCC(O)c1ccc(O)cc1 (stereo not drawn) [Isopropyloctopamine, isopropyloctopamine] | > 300 |
| CNC(C)C(O)c1ccc(O)cc1 (stereo not drawn) [Methylsynephrine] | 44 |
| NCCc1ccccc1 [Phenethylamine, phenethylamine] | > 300 |
| NCCc1ccc(O)cc1 [Tyramine, tyramine] | > 300 |
| NCC(O)c1ccc(O)cc1 (stereo not drawn) [p-Octopamine, p-octopamine] | 11 |
| CNCC(O)c1ccc(O)cc1 (stereo not drawn) [p-Synephrine, p-synephrine] | 2.4 |
| CC(CN)c1ccccc1 (stereo not drawn) [β-Methylphenethyl-amine, beta-methylphenethylamine] | > 300 |

Same assay, conditions: Chem-1

| SMILES | Emax [%] |
| --- | --- |
| CNCC(O)c1ccccc1 (stereo not drawn) [Halostachine, halostachine] | 59 |
| CNC(C)C(O)c1ccc(O)cc1 (stereo not drawn) [Methylsynephrine] | 16 |
| NCC(O)c1ccc(O)cc1 (stereo not drawn) [p-Octopamine, p-octopamine] | 87 |
| CNCC(O)c1ccc(O)cc1 (stereo not drawn) [p-Synephrine, p-synephrine] | 82 |

These compounds were tested against T2, human adrenergic receptor (ADR) α1B (Homo sapiens, UniProt P35368) (assay: ADRα1B activation, Ca2+ influx (Fluo-8) in overexpressing chem-1 cells). Details: not given.
T2 construct: host or cells: rat chem-1 cells
T2 sequence (P35368 1-520): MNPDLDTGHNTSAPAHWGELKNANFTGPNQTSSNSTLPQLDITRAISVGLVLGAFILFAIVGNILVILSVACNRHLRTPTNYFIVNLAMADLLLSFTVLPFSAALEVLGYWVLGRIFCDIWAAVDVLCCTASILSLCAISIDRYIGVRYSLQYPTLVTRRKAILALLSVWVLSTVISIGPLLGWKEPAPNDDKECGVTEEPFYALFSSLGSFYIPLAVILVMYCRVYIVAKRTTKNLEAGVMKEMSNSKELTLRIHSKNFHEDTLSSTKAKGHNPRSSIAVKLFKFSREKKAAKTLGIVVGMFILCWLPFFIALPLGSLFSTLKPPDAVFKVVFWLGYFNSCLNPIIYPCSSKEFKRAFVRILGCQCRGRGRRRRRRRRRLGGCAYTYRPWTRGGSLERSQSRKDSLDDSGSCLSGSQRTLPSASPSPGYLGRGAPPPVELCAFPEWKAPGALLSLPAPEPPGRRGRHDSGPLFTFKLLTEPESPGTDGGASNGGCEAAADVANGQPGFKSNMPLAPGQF
Type: cell-based
From the text: Cells overexpressing human ADRs α1A, α1B, α1D, α2A, α2B, β1 and β2 (Eurofins Discovery Services, St. Charles, MO, USA, product numbers: HTS087RTA, HTS158RTA, HTS216RTA, HTS096RTA, HTS157LRTA, HTS104RTA and HTS073RTA, respectively) were used to study the potency (EC50) and efficacy (Emax) of the selected compounds for these receptors by quantifying Ca^2+ influx upon receptor activation. ADRα1A, α1B, α1D, α2A, β1 and β2 were overexpressed in rat chem-1 cells. ADRα2B was overexpressed in HEK293 cells. The cells were seeded (10,000–50,000 cells/well) in a black 96-well plate (VWR International, Leuven, Belgium) and incubated at 37 °C and 5% CO2 for 24 h. After 24 h, the cells were washed with Hank’s balanced salt solution (HBSS) (Gibco, Paisley, UK) containing 0.35 g/L sodium bicarbonate and incubated with 5 µg/mL Fluo-8 AM in HBSS (pH 7.4) supplemented with 2.5 mM probenecid for 1 h. […] Peak tops of the obtained fluorescence response–time curves were corrected for baseline fluorescence and used to construct concentration–response relationships.
Concentration–response relationships for TAAR1 activation are presented as percentages of the maximal intracellular cAMP level induced by full the TAAR1 agonist phenethylamine and corrected for baseline cAMP accumulation. […] Experiments were run in duplicate in 7–9 independent experiments for ADR and were run in 3–5 independent experiments for TAAR1.

| SMILES | EC50 [µM] |
| --- | --- |
| CNCC(O)c1ccccc1 (stereo not drawn) [Halostachine, halostachine] | 1.1 |
| CC(C)NCC(O)c1ccc(O)cc1 (stereo not drawn) [Isopropyloctopamine, isopropyloctopamine] | > 300 |
| CNC(C)C(O)c1ccc(O)cc1 (stereo not drawn) [Methylsynephrine] | > 300 |
| NCCc1ccccc1 [Phenethylamine, phenethylamine] | > 300 |
| NCCc1ccc(O)cc1 [Tyramine, tyramine] | > 300 |
| NCC(O)c1ccc(O)cc1 (stereo not drawn) [p-Octopamine, p-octopamine] | 3.9 |
| CC(CN)c1ccccc1 (stereo not drawn) [β-Methylphenethyl-amine, beta-methylphenethylamine] | > 300 |

Same assay, conditions: % of maximal signal obtained by adrenaline; average (95% CI)

| SMILES | ADRα1B Emax |
| --- | --- |
| CC(C)NCC(O)c1ccc(O)cc1 (stereo not drawn) [Isopropyloctopamine, isopropyloctopamine] | - |
| CNC(C)C(O)c1ccc(O)cc1 (stereo not drawn) [Methylsynephrine] | - |
| NCCc1ccccc1 [Phenethylamine, phenethylamine] | - |
| NCCc1ccc(O)cc1 [Tyramine, tyramine] | - |
| CC(CN)c1ccccc1 (stereo not drawn) [β-Methylphenethyl-amine, beta-methylphenethylamine] | - |

Same assay, conditions: Chem-1, read-out: ADRα1B Emax

| SMILES | Emax [%] |
| --- | --- |
| CNCC(O)c1ccccc1 (stereo not drawn) [Halostachine, halostachine] | 77 |
| NCC(O)c1ccc(O)cc1 (stereo not drawn) [p-Octopamine, p-octopamine] | 94 |
| CNCC(O)c1ccc(O)cc1 (stereo not drawn) [p-Synephrine, p-synephrine] | 91 |

The compounds below were run against T3, human adrenergic receptor (ADR) β2 (Homo sapiens, UniProt P07550) (assay: ADRβ2 activation, Ca2+ influx (Fluo-8) in overexpressing chem-1 cells). Details: % of maximal signal obtained by adrenaline; average (95% CI).
T3 construct: host or cells: rat chem-1 cells
T3 sequence (P07550 whole entry): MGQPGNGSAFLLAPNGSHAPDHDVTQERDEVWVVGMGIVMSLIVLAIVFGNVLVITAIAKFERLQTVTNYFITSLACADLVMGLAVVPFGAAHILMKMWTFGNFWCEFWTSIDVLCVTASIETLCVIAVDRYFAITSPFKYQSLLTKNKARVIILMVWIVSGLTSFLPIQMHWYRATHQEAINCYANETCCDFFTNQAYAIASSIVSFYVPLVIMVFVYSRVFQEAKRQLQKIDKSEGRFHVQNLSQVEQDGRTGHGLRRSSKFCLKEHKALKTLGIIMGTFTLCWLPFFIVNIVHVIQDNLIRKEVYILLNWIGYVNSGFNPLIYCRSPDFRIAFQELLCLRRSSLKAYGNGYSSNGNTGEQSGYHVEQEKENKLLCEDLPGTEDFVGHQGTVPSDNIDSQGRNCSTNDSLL
Type: cell-based

| SMILES | ADRβ2 Emax |
| --- | --- |
| CNCC(O)c1ccccc1 (stereo not drawn) [Halostachine, halostachine] | - |
| CC(C)NCC(O)c1ccc(O)cc1 (stereo not drawn) [Isopropyloctopamine, isopropyloctopamine] | - |
| CNC(C)C(O)c1ccc(O)cc1 (stereo not drawn) [Methylsynephrine] | - |
| NCCc1ccccc1 [Phenethylamine, phenethylamine] | - |
| NCCc1ccc(O)cc1 [Tyramine, tyramine] | - |
| NCC(O)c1ccc(O)cc1 (stereo not drawn) [p-Octopamine, p-octopamine] | - |
| CNCC(O)c1ccc(O)cc1 (stereo not drawn) [p-Synephrine, p-synephrine] | - |
| CC(CN)c1ccccc1 (stereo not drawn) [β-Methylphenethyl-amine, beta-methylphenethylamine] | - |

Same assay, conditions: Ca2+ response, chem-1 cells; average (95% confidence interval), 7–9 experiments

| SMILES | EC50 [µM] |
| --- | --- |
| CNCC(O)c1ccccc1 (stereo not drawn) [Halostachine, halostachine] | > 300 |
| CC(C)NCC(O)c1ccc(O)cc1 (stereo not drawn) [Isopropyloctopamine, isopropyloctopamine] | > 300 |
| CNC(C)C(O)c1ccc(O)cc1 (stereo not drawn) [Methylsynephrine] | > 300 |
| NCCc1ccccc1 [Phenethylamine, phenethylamine] | > 300 |
| NCC(O)c1ccc(O)cc1 (stereo not drawn) [p-Octopamine, p-octopamine] | > 300 |
| CNCC(O)c1ccc(O)cc1 (stereo not drawn) [p-Synephrine, p-synephrine] | > 300 |
| CC(CN)c1ccccc1 (stereo not drawn) [β-Methylphenethyl-amine, beta-methylphenethylamine] | > 300 |

Each compound was assayed against T4, human trace amine-associated receptor 1 (TAAR1) (Homo sapiens, UniProt Q96RJ0) (assay: TAAR1 activation, intracellular cAMP (ELISA) in HEK293T cells stably expressing human TAAR1). Details: % of maximal cAMP level obtained by phenethylamine; average (95% CI).
T4 construct: expressed in transfected cells
T4 sequence (Q96RJ0 1-339): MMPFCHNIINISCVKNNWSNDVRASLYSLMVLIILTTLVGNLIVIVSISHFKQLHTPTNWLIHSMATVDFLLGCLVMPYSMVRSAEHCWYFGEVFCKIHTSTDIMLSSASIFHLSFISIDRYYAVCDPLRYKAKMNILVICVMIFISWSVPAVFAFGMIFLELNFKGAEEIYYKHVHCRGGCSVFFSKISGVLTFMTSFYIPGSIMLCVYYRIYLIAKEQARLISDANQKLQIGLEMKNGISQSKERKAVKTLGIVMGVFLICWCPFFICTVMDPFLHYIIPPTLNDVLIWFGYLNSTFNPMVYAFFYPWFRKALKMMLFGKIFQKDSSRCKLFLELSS
Type: cell-based
Experimental: The cells were seeded (90,000–250,000 cells/well) in a 48-well plate two days before the assay. Two hours before the assay, the cells were incubated with the culture medium containing 10% charcoal-stripped foetal bovine serum (Gibco, Grand Island, NY, USA). The assay was performed in Earle’s balanced salt solution (EBSS) (Gibco, Paisley, UK), containing 15 mM HEPES (Gibco, Paisley, UK), 1 mM IBMX and 0.02% ascorbic acid. First, the cells were pre-incubated for 20 min in the supplemented buffer. Subsequently, the cells were exposed to the test compounds for 1 h in an incubator at 37 °C with 5% CO2. After 1 h, the buffer was discarded and the cells were lysed with 3% trichloroacetic acid and incubated at room temperature on a plate shaker for 2 h. Cell lysates were further diluted and cAMP was measured using a cAMP ELISA kit (Cayman Chemical, Ann Arbor, MI, USA), according to the manufacturer’s protocol.
Concentration–response relationships are shown as mean ± SD.

| SMILES | TAAR1 Emax |
| --- | --- |
| CNC(C)C(O)c1ccc(O)cc1 (stereo not drawn) [Methylsynephrine] | - |

Same assay, conditions: HEK-293T, % of maximal cAMP level obtained by phenethylamine; average (95% CI)

| SMILES | Emax [%] |
| --- | --- |
| CNCC(O)c1ccccc1 (stereo not drawn) [Halostachine, halostachine] | 104 |
| CC(C)NCC(O)c1ccc(O)cc1 (stereo not drawn) [Isopropyloctopamine, isopropyloctopamine] | 40 |
| NCCc1ccccc1 [Phenethylamine, phenethylamine] | 97 |
| NCCc1ccc(O)cc1 [Tyramine, tyramine] | 77 |
| NCC(O)c1ccc(O)cc1 (stereo not drawn) [p-Octopamine, p-octopamine] | 85 |
| CNCC(O)c1ccc(O)cc1 (stereo not drawn) [p-Synephrine, p-synephrine] | 85 |
| CC(CN)c1ccccc1 (stereo not drawn) [β-Methylphenethyl-amine, beta-methylphenethylamine] | 77 |

Same assay, conditions: cAMP, HEK293T-hTAAR1 cells, 1 h exposure; average (95% confidence interval), 3–5 experiments

| SMILES | EC50 [µM] |
| --- | --- |
| CNCC(O)c1ccccc1 (stereo not drawn) [Halostachine, halostachine] | 74 |
| CC(C)NCC(O)c1ccc(O)cc1 (stereo not drawn) [Isopropyloctopamine, isopropyloctopamine] | 1.8 |
| CNC(C)C(O)c1ccc(O)cc1 (stereo not drawn) [Methylsynephrine] | > 300 |
| NCCc1ccccc1 [Phenethylamine, phenethylamine] | 8.8 |
| NCCc1ccc(O)cc1 [Tyramine, tyramine] | 9.5 |
| NCC(O)c1ccc(O)cc1 (stereo not drawn) [p-Octopamine, p-octopamine] | 46 |
| CNCC(O)c1ccc(O)cc1 (stereo not drawn) [p-Synephrine, p-synephrine] | 92 |
| CC(CN)c1ccccc1 (stereo not drawn) [β-Methylphenethyl-amine, beta-methylphenethylamine] | 2.1 |

Same assay, conditions: concentrations up to 300 µM

| SMILES | activation of TAAR1 |
| --- | --- |
| CNC(C)C(O)c1ccc(O)cc1 (stereo not drawn) [Methylsynephrine] | did not activate |
